From the supplement of paper PMC11208160

experiment: recombinant UMI read abundance after kanamycin selection (control-corrected) (log10(CPM+1)); higher = more efficient recombination; extreme values may be limits of the assay; sequences stand for … in AGTGCAGAGAAAATCGGCCAGTTTTCTCTGCCTGCAGTCCGCATGCCGTGGGACCCCTTGGGTTCTAACCTGTTGCCTAGATTTATGCAGCGGACTGCCTTTCTCCCAAAGTGATAAACCGG…AGGTTGGTTTCACT; site = the 11-nt donor
Procedure, shortened: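 Sequenced counts of recombinant UMIs were turned into CPM, averaged across replicates and scaled with control-derived factors. The reported figure is log10(CPM+1). Those UMIs, each 12 nt long, tagged donor and donor-binding-loop pairs on a plasmid with a promoterless kanamycin gene, screened as a pool in Escherichia coli with IPTG (0.07 mM) plus kanamycin or without selection.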
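Also: IS621 bridge recombinase in Escherichia coli cells against a fixed T5 target plasmid.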

First: GCGAATCCATGGACCGGTTTTCCCGGTAATCCGTATTTGGG (site GCGAAGCCTCC)
Second: GCGAATCCATGGACCGGTTTTCCCGGTAATCCGTATTTGGG (site GCGAATCCTCC)
The “recombinant UMI read abundance (log10)” value of the first is higher: 0.23 for the first, 0.00555 for the second.

Going from “GCGACGCCATGGACCGGTTTTCCCGGTAATCCGTATTTGTC (site GCGACGCCTGA)” to “GCGAGAACATGGACCGGTTTTCCCGGTAATCCGTATTTGCT (site GCGAAAACTAG)”, the “recombinant UMI read abundance (log10)” value falls from 2.1 to 1.35.

Going from “GCGAGAACATGGACCGGTTTTCCCGGTAATCCGTATTTGCT (site GCGACAACTAG)” to “GCGAGAACATGGACCGGTTTTCCCGGTAATCCGTATTTGCT (site GCGAGAACTAG)”, the “recombinant UMI read abundance (log10)” value rises from 0 to 2.24.

First: GCGAGAACATGGACCGGTTTTCCCGGTAATCCGTATTTGCT (site GCGATAACTAG)
Second: GCGAGCTCATGGACCGGTTTTCCCGGTAATCCGTATTTGGG (site GCGAGCTCTCC)
The “recombinant UMI read abundance (log10)” value of the first is lower: 0.492 for the first, 0.714 for the second.

First: GCGATCCCATGGACCGGTTTTCCCGGTAATCCGTATTTGCG (site GCGATCCCTCG)
Second: GCGCCCTCATGGACCGGTTTTCCCGGTAATCCGTATTTGGC (site TGAAGTCCTCT)
The “recombinant UMI read abundance (log10)” value of the first is higher: 1.71 for the first, 0.0178 for the second.

Compared with “GCGCCGACATGGACCGGTTTTCCCGGTAATCCGTATTTGAC (site GCGCCGACTGT)”, “GCGCGAACATGGACCGGTTTTCCCGGTAATCCGTATTTGAC (site GCGCGAACTGT)” is lower in “recombinant UMI read abundance (log10)” value: 2.07 for the first, 1.77 for the second.

First: GCGCGCGCATGGACCGGTTTTCCCGGTAATCCGTATTTGGA (site GCGCGCGCTTC)
Second: GCGCGGGCATGGACCGGTTTTCCCGGTAATCCGTATTTGGC (site GCGCGGGCTGC)
The “recombinant UMI read abundance (log10)” value of the first is lower: 0.527 for the first, 2.54 for the second.

Compared with “GCGCTAACATGGACCGGTTTTCCCGGTAATCCGTATTTGAC (site GCGCTAACTGT)”, “GCGCTAGCATGGACCGGTTTTCCCGGTAATCCGTATTTGCA (site GCGCTAGCTTG)” is lower in “recombinant UMI read abundance (log10)” value: 2.61 for the first, 2.2 for the second.

Going from “GCGCTGGCATGGACCGGTTTTCCCGGTAATCCGTATTTGCG (site GCGCTGGCTCG)” to “GCGGAATCATGGACCGGTTTTCCCGGTAATCCGTATTTGTT (site GCGGAATCTAA)”, the “recombinant UMI read abundance (log10)” value rises from 0.891 to 2.76.

“GCGGAGCCATGGACCGGTTTTCCCGGTAATCCGTATTTGGG (site GCGAAGCCTCC)” and “GCGGAGCCATGGACCGGTTTTCCCGGTAATCCGTATTTGGG (site GCGCAGCCTCC)” are within 0.2 log units of each other in “recombinant UMI read abundance (log10)” value: 0.0138 for the first, 0 for the second.

“GCGGAGCCATGGACCGGTTTTCCCGGTAATCCGTATTTGGG (site GCGGAGCCTCC)” and “GCGGAGCCATGGACCGGTTTTCCCGGTAATCCGTATTTGGG (site GCGTAGCCTCC)” are within 0.2 log units of each other in “recombinant UMI read abundance (log10)” value: 0.0323 for the first, 0.0221 for the second.

Compared with “GCGGAGGCATGGACCGGTTTTCCCGGTAATCCGTATTTGAG (site GCGGAGGCTCT)”, “GCGGCCCCATGGACCGGTTTTCCCGGTAATCCGTATTTGAT (site GCGGCCCCTAT)” is lower in “recombinant UMI read abundance (log10)” value: 1.89 for the first, 0.00951 for the second.

First: GCGGCGACATGGACCGGTTTTCCCGGTAATCCGTATTTGGC (site GCGGCGACTGC)
Second: GCGGGTGCATGGACCGGTTTTCCCGGTAATCCGTATTTGTA (site GCGGGTGCTTA)
The “recombinant UMI read abundance (log10)” value of the first is lower: 1.99 for the first, 2.6 for the second.

First: GCGTAATCATGGACCGGTTTTCCCGGTAATCCGTATTTGCC (site GCGTAATCTGG)
Second: GCGTACGCATGGACCGGTTTTCCCGGTAATCCGTATTTGTT (site GCGTACGCTAA)
The “recombinant UMI read abundance (log10)” value of the first is higher: 2.11 for the first, 1.84 for the second.

For “GCGTAGCCATGGACCGGTTTTCCCGGTAATCCGTATTTGGG (site GCGAAGCCTCC)”, the “recombinant UMI read abundance (log10)” value was 0.00823.
